Patent publication US20140096445A1, “METHOD OF CULTIVATION IN WATER DEFICIT CONDITIONS” (SYNGENTA PARTICIPATIONS AG, priority 2011, published 2014)
Marks after values point to notes of the source that are not given here.

Assays:
Type in all cases: in vivo
corn [1] = test: Greenhouse sub-surface chemigation, yield and root architecture under deficit water, Examples 20-23; conditions: for Yield (% difference from UTC) / Relative number of fine roots (% difference from UTC): sub-surface chemigation at V3/V4, maximum labeled rates, 50% plant-available water; for Relative number of fine roots (% difference from UTC): within 2 weeks of harvest
Excerpt: (§1) In this experiment, standardized growth conditions were applied across all corn treatments including: soil-water availability, soil texture and composition, soil chemical and physical properties, meteorological and environmental parameters, and plant nutrition in a greenhouse. No indication of plant disease or pest damage was observed over the course of the study and no pest management program was necessary. A homogeneous sand-organic matter soil mixture (0.18% organic matter) was used as the growth medium in 55-gal containers. These containers were used as a weighing lysimeter, where daily changes in system weight were used to calculate plant transpiration. Four corn plants were grown in each 55-gal container. Three 55-gal containers (12 plants total) made up each treatment. All irrigation and chemical treatments were applied via sub-surface irrigation. Chemical treatments consisted of: azoxystrobin (Quadris), paclobutrazol (Trimmit), trinexapac-ethyl (Moddus), and propiconazole (Tilt) at maximum labeled rates.
(§2) Corn plants were grown from seed and transplanted in the 55-gal drums approximately 14 days after planting. Uniform adequate irrigation was applied up to growth stage V3/V4 to ensure plant establishment. Chemical treatment applications were applied at growth stage V3/V4 via sub-surface chemigation. At stage V3/V4, irrigation was decreased to replicate deficit water conditions across all treatments for the remainder of the study period. Irrigation was managed daily to maintain 50% plant-available water. Visual signs of abiotic plant stress were observed approximately 30 days after chemical application. All corn plants were grown to yield and cobs were harvested when kernels were uniformly dry (15% moisture content). Root architecture, specifically relative number of fine roots, was measured at within 2 weeks of harvest using a digital imaging technique. Fine roots are related to water uptake productivity, which is directly tied to the ability of the plant to access soil-water under stress.

corn [2] = test: Greenhouse subsurface drip irrigation trial, deficit irrigated, Examples 4-8; conditions: for % Yield Increase by Product over Untr./50% Irr. / Yield: SDI chemigated at V3/V4, 50% irrigated deficit, Azoxystrobin 261, PPZ 126, TXP 250, PBZ 12.5, TMX 70 gai/ha; for Yield compared with the control, in words: water stress regime (50% irrigated), SDI
Protocol: as §1, with “A greenhouse subsurface drip irrigation trial was conducted on corn to evaluate treatment effects on yield in fully irrigated vs. deficit irrigated conditions. In” for “In”
as §2

soybean [3] = test: Sprinkler irrigation field study on soybean yield and WUE, Table 14 (treatments 31-32)
soybean [4] = test: Lateral-move sprinkler irrigation field study on soybean, Examples 29-30; conditions: soybean, sprinkler irrigation
soybean [5] = test: Sprinkler irrigation field study on soybean yield, deficit vs fully irrigated, Examples 27-28
Excerpt: Testing Procedure: The overall objective was to conduct an irrigation management test to study the effects of fungicides and crop enhancement products on yield, WUE, and disease control under full irrigation and deficit irrigation conditions. This was a sprinkler irrigation field study conducted on a deep silt loam soil. The test was set up to specifically quantify the impact of azoxystrobin and acibenzolar-S-methyl on soybean yield and water productivity of soybean under limited (deficit) and fully-irrigated settings. The study utilized a sprinkler irrigation system. The study was replicated three times in an […]. Irrigation control panels, chemical injection pumps, and filters were housed at the irrigation well house to manage irrigation and chemigation events.
Soil water status was monitored throughout the growing season using soil moisture sensors. Soybean variety NK S31-L7 was planted on May 11, 2011 at the rate of 150,000 seed per acre. Testing parameters, and irrigation levels were conducted according to the University of Nebraska experimental procedure [see e.g., (1) Irmak, et. al.] Moisture levels, irrigation levels, evapotranspiration, and plant health were measured throughout the growing season. Climatic variables were measured (air temperature, rainfall, solar and net radiation, relative humidity, rainfall, wind speed and direction) throughout the season. Irrigation for the fully irrigated treatments was scheduled according to need by a climatic water budget using calculated evapotranspiration as a withdrawal and with rainfall and irrigation as deposits. […] Volumetric soil water content was measured in one-foot increments to a depth of 8 ft on an approximately weekly basis throughout the crop season to determine total water use. Crop water use was calculated as the sum of irrigation, precipitation and changes in soil water between the initial and final soil water sampling dates. Water productivity (WUE) was calculated as the crop yield divided by the seasonal water use (Water Productivity (WP)=Yield/ETc). […]

[6] = 60% irrigated deficit, Acibenzolar-S-methyl 10 gai/ha, Azoxy foliar 150 gai/ha + Acibenzolar-S-methyl 10 gai/ha

In the case of `CCCC1COC(Cn2cncn2)(c2ccc(Cl)cc2Cl)O1` (stereo not shown) [PPZ, propiconazole], the “Yield (% difference from UTC)” value (corn [1]) is reported as 3.3%, the “Relative number of fine roots (% difference from UTC)” value (corn [1]) is reported as 39.4† % and the “% Yield Increase by Product over Untr./50% Irr.” value (shortened to “% Yield Increase by Product”) (corn [2]) is reported as “+3.3% Incr. over Untr./50% Irr”. For the same compound, the Yield (corn [2]) was 1906 Kg/Ha and the “Yield compared with the control, in words” value (corn [2]) was “statistically higher than the control”.
In the case of `CN1COCN(Cc2cnc(Cl)s2)/C1=N\[N+](=O)[O-]` [TMX, thiamethoxam], the “% Yield Increase by Product” value (corn [2]) is reported as “+4% Incr. over Untr./50% Irr” and the Yield (corn [2]) is reported as 1916 Kg/Ha.
`CC(C)(C)[C@@H](O)[C@@H](Cc1ccc(Cl)cc1)n1cncn1` (racemic) [PBZ, paclobutrazol] was tested, and the “Yield (% difference from UTC)” value (corn [1]) was 16.6† %, the “Relative number of fine roots (% difference from UTC)” value (corn [1]) was 70.0† % and the “Yield compared with the control, statistical statement” value (corn [1]; sub-surface chemigation, abiotic stress, P values <0.001 at the 95th percentile confidence interval) was “statistically different from the control”. The “% Yield Increase by Product” value (corn [2]) was “+16.6% Incr. over Untr./50% Irr”, the Yield (corn [2]) was 2152† Kg/Ha and the “Yield compared with the control, in words” value (corn [2]) was “statistically higher than the control”.
With `CSC(=O)c1cccc2nnsc12` [Acibenzolar-S-methyl, acibenzolar-S-methyl] the “Yield compared with the untreated, in words” value (soybean [3]; Azoxystrobin: foliar (2 applications) at 60% & 100% irrigated) was “differences in yield over the untreated”, the “WUE differences, in words” value (soybean [3]; water deficit regime) was “Good WUE differences” and the “Water productivity, in words” value (soybean [4]) was “increase in water productivity”. For the same compound, the “Yield, statistical statement” value (soybean [5]; 60% Irrigation (deficit)) was “significant difference in yield”, the “% Yield Increase over Untr./60% irr.” value (soybean [5]; [6]) was “+1% over Untr./60% irr” and the Yield (soybean [5]; [6]) was 53.1 Bu./acre.
